Measured values as given in US20180280319A1, “COMPOUNDS AND COMPOSITIONS FOR TREATMENT OF BREAST CANCER” (UNIVERSITY OF THE SCIENCES, priority 2017, published 2018).
Entries after “also recorded” stand apart in the source; their conditions may differ.

What was measured:
[1] = test system: BT-549 TNBC cell line; assay: Caspase 3/7 activation in BT-549 cells; assay type: cell-based; settings: 10 μM, 4 hr
From the text: (§1) FIGS. 7A-7H illustrate the finding that similar death-inducing effects are observed in other triple negative cells lines BT-549 and Hs578T. […] FIG. 7D represents a graphical quantification of caspase3/7 activation by 3D in BT-549. […] FIG. 7H represents a graphical quantification of caspase3/7 activation by 3D in HS-578T.
(§2) In order to explore the broader effects of 3D in the killing of TNBC cells, the experiments reported in Example 2 were repeated in 2 additional cells lines BT-549 and Hs578T.

[2] = test system: MDA-MB-231 cells; assay: ROS detection (Muse oxidative stress kit) in MDA-MB-231 cells; assay type: cell-based, human; settings: 10 μM, 4 hrs
From the text: (§3) FIG. 4B is a set of images of MDA-MB-231 (TNBC cells) co-cultured with MCF-10A (normal mammary cells) after exposure to DMSO control (left) as well as 3D (right). FIGS. 5A-5E illustrate the finding that 3D induces a rise in reactive oxygen species (ROS) inside TNBC cells and not normal healthy cells.
(§4) Manipulation of reactive oxygen species (ROS) levels is one potential mechanistic target for anti-cancer molecules because high levels of ROS can promote cell death. […] Levels of ROS were detected by assessing the conversion of a non-fluorescent compound (dihydroethidium) to its oxidized metabolite (ethidium bromide) in the presence of intracellularly accumulated ROS following 3D administration using a Muse oxidative stress kit.

[3] = test system: HS-578T TNBC cell line; assay: Caspase 3/7 activation in Hs578T cells; assay type: cell-based; settings: 10 μM, 4 hr
From the text: as §1, §2

[4] = test system: MDA-MB-231 cells; assay: Quantitative annexin V death assay (flow cytometry) in MDA-MB-231 cells; assay type: cell-based, human; settings: n=4-7; for total annexin V-positive cells: DMSO 13.5±2.2%; for live cell population: DMSO 86.4±2.2%
Method: To confirm what type of cell death was responsible for the observed activity, a quantitative annexin V death assay was performed to quantify the amount of necrosis (non-specific toxicity) vs apoptosis (programmed cell death) induced by compound 3D. […] Compound 3D decreased live cell population from 86.4±2.2% (DMSO) to 48.1±3.0% (3D: p<0.001) and increased total annexin V-positive cells from 13.5±2.2% (DMSO) to 51.4±3.1% (3D: p<0.001).

[5] = test system: MDA-MB-231 cells; assay: Cell morphology under phase contrast microscope, MDA-MB-231 cells; assay type: cell-based, human
From the text: FIGS. 2B-2G are images of MDA-MB-231 cells treated with DMSO (control), NS-123 and 3D (FIGS. 2B, 2D and 2F) under a phase contrast microscope (10×) and apoptosis profiles for the respective images (FIGS. 2C, 2E and 2G) determined using flow cytometry.
To further investigate the type of cell death induced by treatment of TNBC cells with 3D, its activity was compared to the original parent radiosensitizing compound NS-123 (4-bromo-3-nitrophenyl propan-1-one). FIG. 2A depicts the chemical structures of both the parent NS-123 (left) and compound 3D (right) highlighting the substitution with iodide and sulfonyl moieties in 3D structure compared to a bromide and carbonyl in the original radiosensitizing NS-123.

[6] = test system: ATM (P-ATM ser1981); assay: Western blot of ATM phosphorylation in MDA-MB-231 cells; assay type: cell-based, human; settings: 4 hr treatment
From the text: (§5) Effects of 3D on DNA damage in MDA-MB-231 cells was compared to a matching dose of DMSO vehicle.

[7] = test system: MCF-10A cells; assay: ROS detection (Muse oxidative stress kit) in normal MCF-10A cells; assay type: cell-based, human; settings: 10 μM, 4 hrs, p=0.9
From the text: as §3, §4

[8] = test system: MDA-MB-231 cells; assay: Colony formation of MDA-MB-231 cells with and without radiation; assay type: cell-based, human; settings: 2 Gray radiation dose
Method: FIG. 1A is a set of images illustrating colonies of MDA-MB-231 cells exposed to DMSO (control) and compound 3D (10 μM, 4 hrs).
FIG. 1B reports the results depicted in FIG. 1A as a bar graph.
Compound 3D was previously shown to radiosensitize ER-positive breast cancer and prostate cancer cells (U.S. Pat. No. 8,541,476). This compound was then tested to see if it would radiosensitize aggressive TNBC cells such as MDA-MB-231.

[9] = test system: MCF-10A (normal mammary cells); assay: Cell morphology of normal MCF-10A cells after treatment; assay type: cell-based; settings: 10 μM, 4 hrs
From the text: (§6) The effects of compound 3D on survival of MCF-10A (normal mammary cells) were thus examined.

[10] = test system: H2AX (P-H2AX ser139); assay: Western blot of H2AX phosphorylation in MDA-MB-231 cells; assay type: cell-based, human; settings: 4 hr treatment
From the text: as §5

[11] = test system: MDA-MB-231 cells; assay: Caspase 3/7 activity assay in MDA-MB-231 cells; assay type: cell-based, human; settings: for caspase 3/7 positive cells: DMSO 6.4±1.1%, n=3
Method: To identify mechanisms involved in the apoptotic death induced by compound 3D the iodine group (3D) was substituted by a fluorine group (3C) and a caspase 3/7 activity assay kit was utilized, which detects downstream effector apoptosis-causing caspases to assess death of TNBC cells. […] Quantitatively, 49.5±8.3% of cells were caspase 3/7 positive when treated with compound 3D compared to only 6.4±1.1% in the DMSO control group p<0.005 (FIG. 3D).
Further substitution experiments were conducted, replacing the para iodine with chlorine or bromine, as well as experiments wherein the sulfone was removed. To help identify mechanisms involved in the apoptotic death induced by compound 3D, the iodine group was substituted with chlorine or bromine. A caspase 3/7 activity assay kit was used to detect downstream effector apoptosis-causing caspases to assess death of TNBC cells. […] Additionally, when a compound was generated lacking the sulfonyl group, all cytotoxic effects of 3D on TNBC cells was abolished.

[12] = test system: ER-positive breast cancer cells; settings: U.S. Pat. No. 8,541,476; cited from earlier work
[13] = test system: MCF-10A cells co-cultured with MDA-MB-231 cells; assay: Co-culture of MCF-10A and MDA-MB-231 cells, fluorescence microscopy; assay type: cell-based, human; settings: 1:1 MCF-10A (mcherry red) and MDA-MB-231 (GFP-green); 10 μM, 4 hrs; n=3
Method: To validate the selective nature of 3D towards cancer cells, normal human mammary cells were co-cultured (MCF-10A) with human TNBC cells (MDA-MB-231) in the same culture dish (FIG. 4B) and incubated with 3D to assess the compound's selectivity. This experiment was done by plating a 1:1 ratio of MCF-10A cells (mcherry red) and MDA-MB-231 cells (GFP-green) and challenging them with DMSO or 3D (10 μM) for 4 hrs as described in Example 2. Following the treatments, pictures were acquired at 20× using the EVOS-Fl microscope. […] This co-culture was repeated 3 separate times on different passages (n=3).

[14] = test system: MCF-10A (normal mammary cells); assay: Annexin V assay in normal MCF-10A mammary cells; assay type: cell-based; settings: normal MCF-10A cells, 10 μM, n=5
From the text: as §6

[15] = test system: prostate cancer cells; settings: U.S. Pat. No. 8,541,476; cited from earlier work

Structure (SMILES) | caspase 3/7 activation [1] | ROS accumulation in TNBC cells [2] | caspase 3/7 activation [3] | total annexin V-positive cells [4] [%] | live cell population [4] [%] | cell appearance under phase contrast microscope (10×) [5] | apoptosis / killing of TNBC cells by caspase 3/7 activation [11] | caspase 3/7 positive cells [11] [%] | further results
O=[N+]([O-])c1ccccc1I [1-iodo-2-nitrobenzene, reference compound] | inactive | inactive | inactive |  |  |  |  |  | 
CCC(=O)c1ccc(Br)c([N+](=O)[O-])c1 [NS-123, 4-bromo-3-nitrophenyl propan-1-one, reference compound] |  |  |  | 11.6±2.4 | 88.3±2.4 | normal healthy features |  |  | 
CCS(=O)(=O)c1ccc(I)c([N+](=O)[O-])c1 [Compound 3D, 4-(Ethylsulfonyl)-1-iodo-2-nitrobenzene] | increased caspase 3/7 activation; also recorded: induced an activated caspase-3/7 population | significantly raised the levels of ROS | increased caspase 3/7 activation | 51.4±3.1 | 48.1±3.0 | rounded and unhealthy; also recorded: noticeably misshapen | induced specific caspase 3/7 activation; also recorded: high rates of apoptosis | 49.5±8.3 | total ATM [6]: remains unchanged; phosphorylated levels of ATM (P-ATM ser1981) ([6]; vs DMSO): significant increase; also recorded: induction; ROS accumulation in normal cells [7]: lacking any significant effects; also recorded: no significant increase; radiosensitizing effect on colony formation [8]: failed to enhance this action further; also recorded: no radiosensitizing effects; increase in ROS accumulation compared to DMSO ([2]; p=0.00005): ~3 fold; effect on morphology / health of normal cells [9]: morphology remains intact; also recorded: no observable effect on the health of non-TNBC cells; total H2AX [10]: increased slightly; phosphorylated levels of H2AX (P-H2AX ser139) ([10]; vs DMSO): significant increase; also recorded: induction; early apoptosis population ([11]; DMSO 0.7±0.1%): 0.9±0.2%; caspase 3/7-positive cells in late apoptosis phase ([11]; DMSO 5.8±1.0%): 47.4±8.5%; radiosensitization [12]: radiosensitize; selectivity of apoptotic death in co-culture [13]: apoptotic death selectively occurred in the green cells (TNBC) while the red cells (normal) remained healthy; total apoptosis ([14]; DMSO 12.7±5.3%): 12.2±3.2%; cell viability ([14]; DMSO 85.6±5.9%): 86.9±3.3%; radiosensitization [15]: radiosensitize
CCS(=O)(=O)c1ccc(F)c([N+](=O)[O-])c1 [Compound 3C, 4-(Ethylsulfonyl)-1-fluoro-2-nitrobenzene] |  |  |  |  |  |  | very low rates of apoptosis | 7.9±3.0 | 
